# “Also recorded” adds a separate entry of the source. Marks after values point to notes of the source that are not given here.
# What was measured:
# [1] = test system: S. gordonii DL1; assay: Commensal biofilm inhibition, S. gordonii DL1 (crystal violet, OD562); assay type: cell-based, Streptococcus gordonii; settings: for S. gordonii biofilm: 25 μM
# Experimental: The bacterial strains, S. mutans UA159, S. gordonii DL1, and S. sanguinis SK36 were inoculated statically at 37° C. under 5% CO2 in Todd Hewitt Broth (THB) for 24 h. The cultures were then diluted with fresh THB (1:5) and reinoculated until optical density at 470 nm (OD470) reached 1. The optical density was read using BioTek 800TS microplate reader at 470 nm for bacterial growth and 562 nm for biofilm stained with crystal violet. Data was plotted in Graphpad Prism9.
# Biofilm inhibition assays. Biofilm inhibition assays were performed in polystyrene microtiter 96 well plates. Stock solutions were prepared in chemically defined medium (CDM, JRH Biosciences, Lenexa, KS) with 2% sucrose, 1% bacteria cultures and various concentrations of the small molecule inhibitors to examine their activity against biofilm formation as described^69, 70. These stocks were assayed in 96 well plates in triplicate and incubated at 37° C. and 5% CO2 for 16 h. After reading optical density for bacterial growth, the plate was gently washed with water, dried, and stained with crystal violet, and then gently rinsed again with deionized water leaving the stained biofilm at the bottoms of the wells. Biofilms was dissolved in 200 μL of 30% acetic acid and absorbance at 562 nm was used read to determine biofilm biomass. Each assay was carried out at least in triplicate. Biofilm inhibitory concentration (IC50) of the compounds was determined by serial dilutions.
# All bacterial strains (S. mutans UA159, S. gordonii DL1, and S. sanguinis SK36) were inoculated statically at 37° C. under 5% CO2 environment in Todd Hewitt Broth (THB) for 24 h^[61]. […] The optical density was read using BioTek 800 TS absorbance reader at 470 nm for bacterial growth and 562 nm for biofilm stained with crystal violet. […]
# Biofilm inhibition assays were performed in polystyrene microtiter 96-well plates. […] After reading optical density for bacterial growth, the plate was washed, dried, and stained with 0.1% crystal violet which was again rinsed well with deionized water leaving the stained biofilm at the bottoms of the wells. […]
# [2] = test system: S. mutans UA159; assay: Gnotobiotic rat model of dental caries (HEBI / HA5 study, Example 1); assay type: in vivo, Fischer 344 rats infected with S. mutans UA159; set-up: key to Buccal Mean Caries Scores (±SEM) E / Buccal Mean Caries Scores (±SEM) Ds / Buccal Mean Caries Scores (±SEM) Dm / Buccal Mean Caries Scores (±SEM) Dx / Sulcal Mean Caries Scores (± SEM) E / Sulcal Mean Caries Scores (± SEM) Ds / Sulcal Mean Caries Scores (± SEM) Dm / Sulcal Mean Caries Scores (± SEM) Dx / Proximal Mean Caries Scores (± SEM) E: caries scores by the method of Keyes; settings: for CFU/mL BAP: Blood Agar Plates; for CFU/mL BAP / CFU/mL MS / Buccal Mean Caries Scores (±SEM) Dx / Sulcal Mean Caries Scores (± SEM) Dx / Buccal Mean Caries Scores (±SEM) Dm / Sulcal Mean Caries Scores (± SEM) Dm / Buccal Mean Caries Scores (±SEM) Ds / Sulcal Mean Caries Scores (± SEM) Ds / Buccal Mean Caries Scores (±SEM) E / Proximal Mean Caries Scores (± SEM) E / Sulcal Mean Caries Scores (± SEM) E: 100 μM (NaF 250 ppm), 4 weeks; for CFU/mL MS: Mitis Salivarius agar; for Buccal Mean Caries Scores (±SEM) Dx / Sulcal Mean Caries Scores (± SEM) Dx: dentinal extensive; for Buccal Mean Caries Scores (±SEM) Dx / Sulcal Mean Caries Scores (± SEM) Dx / Buccal Mean Caries Scores (±SEM) Dm / Sulcal Mean Caries Scores (± SEM) Dm / Buccal Mean Caries Scores (±SEM) Ds / Sulcal Mean Caries Scores (± SEM) Ds / Buccal Mean Caries Scores (±SEM) E / Proximal Mean Caries Scores (± SEM) E / Sulcal Mean Caries Scores (± SEM) E: topical twice daily; for Buccal Mean Caries Scores (±SEM) Dm / Sulcal Mean Caries Scores (± SEM) Dm: dentinal moderate; for Buccal Mean Caries Scores (±SEM) Ds / Sulcal Mean Caries Scores (± SEM) Ds: dentinal slight; for Buccal Mean Caries Scores (±SEM) E / Proximal Mean Caries Scores (± SEM) E / Sulcal Mean Caries Scores (± SEM) E: enamel
# Experimental: Reduction of S. mutans virulence in vivo by HA5 or HEBI. The effects of compound HA5 and HEBI on S. mutans virulence were evaluated using a well-established gnotobiotic rat model of dental caries 67. Hydrogel microparticles with no drug were used to ensure that the observed anti-virulence activity observed with HEBI was not related to the hydrogel material. The standard NaF (250 ppm) was included as a positive control. A (vehicle+infection only) group was included as a negative control. All rats in the experimental groups and control groups were colonized with S. mutans UA159. […] Similar reductions in caries scores were also observed in proximal enamel caries scores (Table 3). An evaluation of the effect of the treatment on proximal dentinal scores was unable to be performed as there were no significant proximal dentinal lesions for the control and treated groups in this study. […] The observed reduction in caries scores by HA5 and HEBI were similar with HEBI displaying slightly better in vivo activity, possibly due to the pH-dependent slow release. The observed reduction in caries scores by HA5 or HEBI is lower than the 250 ppm NaF treatment. However, it should be noted that the concentration of NaF (250 ppm=5.95 mM) is about 59-fold higher than HA5 (100 μM). At the end of the study, the animals were euthanized, their mandibles excised for microbiological analysis of plaque samples on MS agar plates and BAP and for scoring of caries by the method of Keyes^68 to determine the bacterial colonization. […] All in vivo experimental protocols were approved by the University of Alabama at Birmingham Institutional Animal Care and Use Committee (protocol No: IACUC-20047). The methods were carried out in accordance with the relevant guidelines and regulations.
# Rat model of dental caries. In vivo studies of colonization and virulence of S. mutans were evaluated using a previously reported rat model of dental caries^71. Offspring of gnotobiotic Fischer 344 rats used in this experiment were bred and maintained in trexler isolators. Male and female rat pups were removed from isolators at 20 days of age and randomly assigned into 5 treatment groups of 5 rats/group in cages with filter tops. Rats were then infected with S. mutans UA159 strain by oral swabbing daily for four consecutive days with a fresh overnight culture of S. mutans UA159. Rats were provided with caries promoting Teklad Diet 305 containing […] (Harlan Laboratories, Inc., Indianapolis, IN) and sterile drinking water ad libitum. Oral swabs were taken 5 days post-infection and plated on Todd Hewitt (TH) agar plates and incubated at 37° C. in an environment of 5% CO2 in the air to confirm colonization. Rats were weighed at weaning and at the termination of the experiment. One-week post-infection, the molars of the rats were treated topically twice daily for 4 weeks with the test compounds using camel-hair brushes. The five treatment groups used in this study were: 1) HEBI (100 μM); 2) HA5 (100 μM); 3) hydrogel encapsulated PBS (no drug) containing 0.1% DMSO (negative control), 4) 250 ppm NaF (positive control) and 5) infected untreated group (negative control). Drinking water was withheld for 60 min following each treatment with the compound. Animals were weighed at weaning and at the termination of the experiment. On day 60, the rats were sacrificed using CO2 followed by cervical dislocation or bilateral thoracotomy. The mandibles were surgically removed and cleaned of excess tissue to assess the level of bacteria present and the extent of caries formation. The right mandibles from each rat were placed in a tube containing phosphate buffer (3 mL), placed on ice and sonicated (10 sec) to release bacteria from the molars. Each sample was serially diluted, plated on blood agar plates (BAP) and mitis-salivarius (MS) agar plates and incubated in an environment of 5% CO2 at 37° C. to quantify the level of total bacteria and S. mutans present in the plaque. […]
smiles,measurement,setting,value
"O=C1/C(=C/c2cc(O)c(O)cc2O)Oc2ccccc21 [HA5, 2-[(2′,4′,5′-Trihydroxyphenyl)methylidene]-2,3-dihydro-1-benzofuran-3-one]",S. gordonii biofilm,[1],minimal
same,inhibition at 25 µM,"[1]; Streptococcus gordonii, DL1",~20%
same,effect on bacterial colonization,"[2]; 4-week treatment, 100 μM",not significant; also recorded: without affecting the bacterial colonization significantly
same,reduction in caries scores,"[2]; 4-week treatment, 100 μM","significant reduction in buccal, sulcal, and proximal dental caries scores"
same,CFU/mL BAP,[2],3.0 ± 1.0 CFU/mL (×10^6)
same,CFU/mL MS,[2],2.5 ± 0.8 CFU/mL (×10^6)
same,Buccal Mean Caries Scores (±SEM) Dx,[2],2.0 ± 0.7
same,Sulcal Mean Caries Scores (± SEM) Dx,[2],4.4 ± 0.9
same,Buccal Mean Caries Scores (±SEM) Dm,[2],3.8 ± 0.2
same,Sulcal Mean Caries Scores (± SEM) Dm,[2],8.8 ± 0.9
same,Buccal Mean Caries Scores (±SEM) Ds,[2],6.0 ± 0.4
same,Sulcal Mean Caries Scores (± SEM) Ds,[2],16.2 ± 0.4
same,Buccal Mean Caries Scores (±SEM) E,[2],11.0 ± 0.3
same,Proximal Mean Caries Scores (± SEM) E,[2],4.0 ± 0.0
same,Sulcal Mean Caries Scores (± SEM) E,[2],22.0 ± 0.6
"O=C1/C(=C/c2cc(O)c(O)c(O)c2)Oc2ccccc21 [HA6, 2-[(3′,4′,5′-Trihydroxyphenyl)methylidene]-2,3-dihydro-1-benzofuran-3-one]",S. gordonii biofilm,[1],did not significantly reduce the biofilms
"[F-].[Na+] [NaF, reference compound]",CFU/mL BAP,[2],4.0 ± 0.9 CFU/mL (×10^6)
same,CFU/mL MS,[2],3.4 ± 0.5 CFU/mL (×10^6)
same,Buccal Mean Caries Scores (±SEM) Dx,[2],0.0 ± 0.0
same,Sulcal Mean Caries Scores (± SEM) Dx,[2],1.0 ± 0.3
same,Buccal Mean Caries Scores (±SEM) Dm,[2],1.0 ± 0.8
same,Sulcal Mean Caries Scores (± SEM) Dm,[2],4.6 ± 0.2
same,Buccal Mean Caries Scores (±SEM) Ds,[2],2.4 ± 0.8
same,Sulcal Mean Caries Scores (± SEM) Ds,[2],11.2 ± 0.4
same,Buccal Mean Caries Scores (±SEM) E,[2],5.0 ± 0.7
same,Proximal Mean Caries Scores (± SEM) E,[2],1.2 ± 0.8
same,Sulcal Mean Caries Scores (± SEM) E,[2],14.2 ± 0.7

# — patent US20260315431A1, “NANOMATERIAL ENCAPSULATED BIOFILM INHIBITORS FOR DENTAL CARIES TREATMENT” (THE UAB RESEARCH FOUNDATION, priority 2023, published 2026)
